Measured values taken from US9408393B2, “Bismuth-thiols as antiseptics for agricultural, industrial and other uses” (Microbion Corporation, priority 2010, dated 2016).
Read-outs that look alike come from different tables or passages of the source.

Assays:
[1] = test system: MRSA clinical isolates biofilm; assay: Biofilm-prevention concentration (BPC) in BHIG/X medium with subMIC BisEDT; assay type: cell-based, Staphylococcus aureus; conditions: 12 MRSA clinical isolates, mean ± SD
Protocol: (§1) Broth dilution antimicrobial susceptibility studies were performed against 12 MRSA strains using several antibiotics combined with subMIC levels of BisEDT (Table 18). Both the biofilm-prevention concentration (BPC) and the minimum inhibitory concentration (MIC) were determined in a special biofilm culture medium (BHIG/X). […] These strains were already sensitive to vancomycin, but were made considerably moreso in the presence of subMIC BisEDT.

[2] = test system: MRSA clinical isolates; conditions: cited from earlier work; for MIC Standards, R (resistance): Standard MIC breakpoint for resistance; for MIC Standards, S (antibiotic sensitivity): Standard MIC breakpoint for sensitivity
[3] = test system: MRSA clinical isolates; assay: Broth dilution MIC in BHIG/X medium with subMIC BisEDT; assay type: cell-based, Staphylococcus aureus; conditions: 12 MRSA clinical isolates, BHIG/X, mean ± SD
Protocol: as §1
In this particular study, the data indicated synergy between BisEDT and cefepime (FIC<0.5), with many of the isolates at the breakpoint for sensitivity.

[4] = test system: lawn of MRSA (Methicillin-resistant S. aureus); assay: Antibiotic-soaked discs on bacterial lawn with and without BisEDT; assay type: cell-based, Staphylococcus aureus; conditions: antibiotic discs combined with BisEDT 0.05 μg/ml
Protocol: FIGS. 4A and 4B show the subinhibitory BisEDT reversing antibiotic-resistance to several antibiotics. Effects of antibiotics with and without BisEDT (0.05 μg/ml) on a lawn of MRSA (Methicillin-resistant S. aureus) is shown. […] [GM=gentamicin, CZ=cefazolin, FEP=cefepime, IPM=imipenim, SAM=ampicillin/sulbactam, LVX=levofloxacin.

[5] = test system: S. epidermidis; assay: Growth inhibition (MIC) and MBC, BisEDT and antibiotics; assay type: cell-based, Staphylococcus epidermidis
Excerpt: Results are expressed as the mean change in MIC (dilution steps) with increasing BisEDT (n=3). See legend in FIG. 5 for antibiotic definitions.
The MIC change was most pronounced for clindamycin and gentamicin, followed by vancomycin, cefazolin, minocycline, gatifloxacin and nafcillin, with rifampicin unaffected.
Minimum bactericidal concentration (MBC) for most antibiotics tested against S. epidermidis decreased slightly with subMIC BisEDT. […] Clindamycin is a bacteriostatic agent, which explains its lack of bactericidal activity. Cefazolin resistance was reversed with respect to the MBC [Domenico et al., 2003]. These effects were additive.

[6] = test system: S. epidermidis; assay: Broth dilution MIC/MBC, BT-antibiotic combinations; assay type: cell-based, Staphylococcus epidermidis; conditions: for Δ (0.05 BE), MIC / Δ, MIC: 0.05 μg/ml BisEDT; for Δ (0.1 BE), MBC: 0.1 μg/ml BisEDT
Protocol: Materials & Methods. Susceptibility studies were performed by broth dilution in 96-well tissue culture plates (Nalge Nunc International, Denmark) in accordance with NCCLS protocols (National Committee for Clinical Laboratory Standards. (1997). Methods for Dilution Antimicrobial Susceptibility Tests for Bacteria that Grow Aerobically: Approved Standard M7-A2 and Informational Supplement M100-S10. NCCLS, Wayne, Pa., USA).
Briefly, overnight bacterial cultures were used to prepare 0.5 McFarland standard suspensions, which were further diluted 1:50 (˜2×10^6 cfu/mL) in cation-adjusted Mueller-Hinton broth medium (BBL, Cockeysville, Md., USA). BTs (prepared as described above) and antibiotics were added at incremental concentrations, keeping the final volume constant at 0.2 mL. Cultures were incubated for 24 h at 37° C. and turbidity was assessed by absorption at 630 nm using an ELISA plate reader (Biotek Instruments, Winooski, Vt., USA) according to the manufacturer's recommendations. […] Viable bacterial counts (cfu/mL) were determined by standard plating on nutrient agar.
The checkerboard method was used to assess the activity of antimicrobial combinations. The fractional inhibitory concentration index (FICI) and the fractional bactericidal concentration index (FBCI) were calculated, according to Eliopoulos et al. (Eliopoulos and Moellering, (1996) Antimicrobial combinations. In Antibiotics in Laboratory Medicine (Lorian, V., Ed.), pp. 330-96, Williams and Wilkins, Baltimore, Md., USA). Synergy was defined as an FICI or FBCI index of […], no interaction at >0.5-4 and antagonism at >4 (Odds, F C (2003) Synergy, antagonism, and what the chequerboard puts between them. Journal of Antimicrobial Chemotherapy 52:1). Synergy was also defined conventionally as ≧4-fold decrease in antibiotic concentration.

[7] = test system: S. epidermidis biofilm; assay: Biofilm prevention concentration (BPC), BisEDT and antibiotics; assay type: cell-based, Staphylococcus epidermidis; conditions: for Change of biofilm prevention concentration (BPC): 0.05 μg/ml BisEDT
Protocol: (§2) S. epidermidis grown in TSB+2% glucose in polystyrene plates for 48 h at 37° C. Gatifloxacin (GF), clindamycin (CM), minocycline (MC), gentamicin (GM), vancomycin (VM), cefazolin (CZ), nafcillin (NC), and rifampicin (RP). […]

[8] = test system: S. epidermidis S2400-1 biofilm; assay: Biofilm prevention, BisEDT-antibiotic combinations; assay type: cell-based, Staphylococcus epidermidis; conditions: for Δ (0.05 BE), biofilm prevention: 0.05 μg/ml BisEDT
Protocol: as §2

[9] = test system: MRSA; assay: Combination MIC study, nafcillin or gentamicin + BisEDT, TSB with 2% glucose; assay type: cell-based, Staphylococcus aureus; conditions: for Fold reduction of antibiotic MIC90 by BisEDT: BisEDT 0.2 μg/ml; for FIC: antibiotic combined with BisEDT 0.2 μg/ml
Excerpt: BTs reversed the resistance of all four gentamicin-resistant isolates tested to clinically relevant concentrations [Domenico et al., 2002]. The MICs for these antimicrobial agents was reduced substantially, especially for gentamicin.

[10] = test system: S. epidermidis (methicillin-susceptible and methicillin-resistant); assay: Graft infection rat model, quantitative graft culture; assay type: in vivo; conditions: rats, s.c. Dacron graft, explanted at 7 days, 0.1 mg/l BTs, 10 mg/l RIP, 10 mg/l rifampin
Protocol: As summarized in Table 21, implants impregnated with 0.1 μg/ml BisEDT, 10 μg/ml RIP and 10 μg/ml rifampin, alone or combined were implanted s.c. into rats. Physiological solution (1 ml) containing the MS and MR strains at 2×10^7 cfu/ml was inoculated onto the graft surface using a tuberculin syringe. All grafts were explanted at 7 days following implantation and sonicated for 5 minutes in sterile saline solution to remove the adherent bacteria. Quantitation of viable bacteria was obtained by culturing dilutions on blood agar plates. The limit of detection was approximately 10 cfu/cm^2.

[11] = S. epidermidis S2400-1, BisEDT 0 μg/ml
[12] = S. epidermidis S2400-1, BisEDT 0.0 μg/ml
[13] = S. epidermidis S2400-1, BisEDT 0.05 μg/ml
[14] = S. epidermidis S2400-1, BisEDT 0.1 μg/ml
[15] = S. epidermidis ATCC 35984, BisEDT 0.0 μg/ml
[16] = S. epidermidis ATCC 35984, BisEDT 0.05 μg/ml

Row | Molecule | BPC ([1]; BisEDT 0 μg/mL) [µg/mL] | BPC ([1]; BisEDT 0.025 μg/mL) [µg/mL] | BPC ([1]; BisEDT 0.05 μg/mL) [µg/mL] | BPC ([1]; BisEDT 0.1 μg/mL) [µg/mL] | MIC Standards, R (resistance) [2] | MIC Standards, S (antibiotic sensitivity) [2] | Antibiotic action on MRSA lawn with subMIC BisEDT [4] | Reduction in MBC with subMIC BisEDT [5] | Synergy, MBC ([6]; S. epidermidis S2400-1) | Δ (0.05 BE), MIC ([6]; S. epidermidis S2400-1) | Δ (0.1 BE), MBC ([6]; S. epidermidis S2400-1) | MIC [6, 11] [µg/mL] | MBC [6, 12] [µg/mL] | MIC [6, 13] [µg/mL] | MBC [6, 14] [µg/mL] | MIC [6, 14] [µg/mL] | Δ (0.05 BE), biofilm prevention [8] | Biofilm Prevention (antibiotic concentration) ([8]; BisEDT 0 μg/ml) [µg/mL] | Biofilm Prevention (antibiotic concentration) ([8]; BisEDT 0.05 μg/ml) [µg/mL] | Biofilm Prevention (antibiotic concentration) ([8]; BisEDT 0.1 μg/ml) [µg/mL] | also measured
1 | Cc1nnc(SCC2=C(C(=O)O)N3C(=O)[C@@H](NC(=O)Cn4cnnn4)[C@H]3SC2)s1 [Cefazolin, cefazolin] | 109 ± 86 | 76 ± 86 | 76 ± 105 | 34 ± 28 | ≧32 μg/ml | ≦8 μg/ml | enhanced antibiotic action | 4- to 5 fold | + (Synergy was also defined conventionally as ≧4-fold decrease in antibiotic concentration) | 4.00 | 4.80 | 32 | 48 | 8 | 10 | 1 | 2.8 | 28 | 10 | 1 | MIC ([3]; Staphylococcus aureus, MRSA, BisEDT 0 μg/mL, read-out: MIC): 93 ± 75 µg/mL; MIC ([3]; Staphylococcus aureus, MRSA, BisEDT 0.025 μg/mL, read-out: MIC): 99 ± 76 µg/mL; MIC ([3]; Staphylococcus aureus, MRSA, BisEDT 0.05 μg/mL, read-out: MIC): 90 ± 60 µg/mL; MIC ([3]; Staphylococcus aureus, MRSA, BisEDT 0.1 μg/mL, read-out: MIC): 45 ± 32 µg/mL; MIC change (growth inhibition) with BisEDT ([5]; 0.1 μg/ml (0.5 μM) BisEDT): resistance was reversed to clinically relevant levels; Synergy, MIC ([6]; S. epidermidis S2400-1): + (Synergy was also defined conventionally as ≧4-fold decrease in antibiotic concentration); Change of biofilm prevention concentration (BPC) [7]: modest decreases
2 | CCOc1ccc2ccccc2c1C(=O)N[C@@H]1C(=O)N2[C@@H]1SC(C)(C)[C@@H]2C(=O)O [Nafcillin] | – | – | – | – | – | – | – | – | – | 0.89 | 2.00 | 171 | 256 | 192 | 128 | 68 | 0.8 | 48 | 64 | 8 | Fold reduction of antibiotic MIC90 by BisEDT [9]: over 4 fold; FIC [9]: 0.74; Δ, MIC ([6]; S. epidermidis ATCC 35984): 3.2; MIC [6, 15]: 16.00 µg/mL; MIC [6, 16]: 5.00 µg/mL; Change of biofilm prevention concentration (BPC) [7]: remained unaffected
3 | bismuth-1,2-ethanedithiol [BisEDT] | – | – | – | – | – | – | – | – | – | – | – | – | – | – | – | – | – | – | – | – | Quantitative graft culture ([10]; methicillin-resistant S. epidermidis): 6.2 × 10^2 ± 2.3 × 10^2 cfu/cm^2; Quantitative graft culture ([10]; methicillin-susceptible S. epidermidis): 5.8 × 10^2 ± 0.9 × 10^2 cfu/cm^2
4 | gentamicin | 81 ± 41 | 63 ± 30 | 53 ± 31 | 33 ± 25 | ≧16 μg/ml | ≦4 μg/ml | enhanced antibiotic action | 4- to 16 fold | + (Synergy was also defined conventionally as ≧4-fold decrease in antibiotic concentration) | 6.40 | 6.00 | 2048 | 1536 | 320 | 256 | 80 | 3.9 | 555 | 144 | 12 | Fold reduction of antibiotic MIC90 by BisEDT [9]: over 10 fold; FIC [9]: 0.6; MIC ([3]; BisEDT 0 μg/mL): 81 ± 40 µg/mL; MIC ([3]; BisEDT 0.025 μg/mL): 60 ± 27 µg/mL; MIC ([3]; BisEDT 0.05 μg/mL): 58 ± 30 µg/mL; MIC ([3]; BisEDT 0.1 μg/mL): 48 ± 31 µg/mL; Δ, MIC ([6]; S. epidermidis ATCC 35984): 13.3; MIC [6, 15]: 213.33 µg/mL; MIC [6, 16]: 16.00 µg/mL; Synergy, MIC ([6]; S. epidermidis S2400-1): + (Synergy was also defined conventionally as ≧4-fold decrease in antibiotic concentration); Fold reduction of BPC in presence of subMIC BisEDT ([7]; TSB + 2% glucose, 48 h): 4 fold; Synergy, biofilm prevention [8]: borderline
